This note sets out measurements from ChEMBL document CHEMBL4334518, “Discovery and Pharmacological Studies of 4-Hydroxyphenyl-Derived Phosphonium Salts Active in a Mouse Model of Visceral Leishmaniasis” (J Med Chem, 2019).

For data set [1], the system named is Leishmania donovani. Description: Antileishmanial activity against Leishmania donovani MHOM/ET/67/HU3 intracellular amastigotes infected in human THP1 cells after 96 hrs by prolong-gold antifade-reagent/DAPI staining based assay. In kind it is functional, organism-based. The settings on record: MHOM/ET/67/HU3, THP-1, 96 h.
Data set [2] has as its system Leishmania donovani. The data set can be described thus: Potency index, ratio of amphotericin B EC50 to test compound EC50 for antileishmanial activity against Leishmania […] amastigote infected in THP1 cells. Type of data set: functional.
The nature of data set [3]: Selectivity index, ratio of EC50 for cytotoxicity against human THP1 cells to EC50 for antileishmanial activity against Leishmania donovani MHOM/ET/67/HU3 amastigotes infected in human THP1 cells. Type of data set: toxicity, cell-based. Conditions: read-out: Ratio EC50.
Data set [4] deals with THP-1. Description: Cytotoxicity against human THP1 cells assessed as reduction in cell viability after 72 hrs by MTT assay. Type of data set: cell-based. The settings on record: THP-1, 72 h. In general terms: Tetrazolium dyes change colour on reduction, which living cells bring about.
For data set [5], the system named is Leishmania donovani. The data set can be described thus: Antileishmanial activity against Leishmania donovani MHOM/ET/67/HU3 promastigote after 72 hrs by MTT assay. Type of data set: functional, organism-based. The settings on record: MHOM/ET/67/HU3, 72 h.
Data set [6] can be described thus: Selectivity index, ratio of EC50 for cytotoxicity against human MRC5 cells to EC50 for antileishmanial activity against Leishmania donovani MHOM/ET/67/HU3 amastigotes infected in human THP1 cells. Type of data set: toxicity, cell-based. Conditions: read-out: Ratio EC50.
Data set [7] can be described thus: in vitro. Conditions: human, microsomes.
Description: Half life in human liver microsomes at 20 to 40 uM measured for 120 mins in presence of NADPH by RP-HPLC analysis
Data set [8] relates to Leishmania infantum. The data set can be described thus: Antileishmanial activity against Leishmania infantum LEM 3049 isolate promastigote after 72 hrs by MTT assay. Type of data set: functional, organism-based.
In data set [9] the test system is Leishmania infantum. Description: Antileishmanial activity against Sb 3 resistant Leishmania infantum LEM 3329 isolate promastigote after 72 hrs by MTT assay. Type of data set: functional, organism-based.
In data set [10] the test system is Leishmania infantum. Description: Antileishmanial activity against MIL resistant Leishmania infantum LEM 5159 isolate promastigote after 72 hrs by MTT assay. In kind it is functional, organism-based.
Data set [11] deals with Leishmania infantum. Description: Antileishmanial activity against Leishmania infantum LEM 3049 isolate intracellular amastigotes infected in human THP1 cells after 96 hrs by prolong-gold antifade-reagent/DAPI staining based assay. In kind it is functional, organism-based. The settings on record: THP-1, 96 h.
Data set [12] relates to Leishmania infantum. Description: Antileishmanial activity against Sb 3 resistant Leishmania infantum LEM 3329 isolate intracellular amastigotes infected in human THP1 cells after 96 hrs by prolong-gold antifade-reagent/DAPI staining based assay. Type of data set: functional, organism-based. Conditions: THP-1, 96 h.
Data set [13] concerns Leishmania infantum. The data set can be described thus: Antileishmanial activity against MIL/paromomycin resistant Leishmania infantum LEM 2126 isolate promastigote after 72 hrs by MTT assay. In kind it is functional, organism-based.
The test system of data set [14] is Leishmania infantum. The data set can be described thus: Antileishmanial activity against MIL/paromomycin resistant Leishmania infantum LEM 2126 isolate intracellular amastigotes infected in human THP1 cells after 96 hrs by prolong-gold antifade-reagent/DAPI staining based assay. In kind it is functional, organism-based. The settings on record: THP-1, 96 h.
The subject of data set [15] is Leishmania infantum. Description: Antileishmanial activity against MIL resistant Leishmania infantum LEM 5159 isolate intracellular amastigotes infected in human THP1 cells after 96 hrs by prolong-gold antifade-reagent/DAPI staining based assay. Type of data set: functional, organism-based. The settings on record: THP-1, 96 h.

`Cc1cc(O)ccc1C(=O)CCCCCCCCCCCCCCC[P+](c1ccccc1)(c1ccccc1)c1ccccc1.[Br-]`: the EC50 in [1] is 100 nM; in data set [4], 2450 nM; in data set [5], 90 nM. Moreover, the “Ratio EC50” value in data set [2] is reported as 2. Also, the selectivity ratio in data set [3] came to 24.5.

Regarding `O=C(O)c1ccc(OCCCCCCCCCC[P+](c2ccccc2)(c2ccccc2)c2ccccc2)cc1O`, the selectivity ratio in [6] fell in the range of 2 to 27. Further, the EC50 in data set [1] and in data set [5] was below 200 nM throughout.

As for `Cc1cc(O)ccc1C(=O)OCCCCCCCCCCCCCC[P+](c1ccccc1)(c1ccccc1)c1ccccn1`, the results for the EC50 in data set [1], in data set [4] and in data set [5] were 120 nM, 2350 nM and 180 nM, respectively. Moreover, the selectivity ratio in data set [3] is 19.6.

For `Cc1cc(O)ccc1C(=O)OCCCCCCCCCCCCCC[P+](c1ccccc1)(c1ccccc1)c1ccccc1`, the EC50 was determined as 150 nM in data set [1], 1840 nM in data set [4] and 90 nM in [5]. Also, the selectivity ratio in data set [3] turned out to be 12.3.

As to `Cc1cc(O)ccc1C(=O)CCCCCCCCCCCCCCC[P+](c1ccccc1)(c1ccccc1)c1ccccn1.[Br-]`, the results for the concentration giving a half-maximal response (EC50) in data set [1], in [4] and in data set [5] were 100 nM, 2110 nM and 280 nM, respectively. For the same compound, in data set [2], the “Ratio EC50” value was determined as 2. Further, the selectivity ratio in data set [3] was 21.1.

Take `O=C(OCCCCCCCCCCCCCC[n+]1cccc2ccccc21)c1ccc(O)cc1O`: the EC50 in data set [1] is 800 nM; in data set [5], below 200 nM. In addition, the selectivity ratio in [3] was 3.7 to 5.

Take `CCOC(=O)c1c(C)cc(OCCCCCCCCCCCCCC[P+](c2ccccc2)(c2ccccc2)c2ccccc2)cc1O`: the selectivity ratio in [6] is 2 to 27. The compound also registered an EC50 in data set [1] below 1000 nM.

As for `OCCCCCCCCCCCCCC[P+](c1ccccc1)(c1ccccc1)c1ccccc1`, the EC50 in data set [1] is 350 nM; in data set [4], 3050 nM; in data set [5], 330 nM. Further, the selectivity ratio in [3] is 8.7.

With `O=C(OCCCCCCCCCCCC[n+]1cccc2ccccc21)c1ccc(O)cc1O`, the values for the EC50 in data set [1] and in data set [5] were 800 nM and below 200 nM, respectively. For the same compound, in data set [3], the selectivity ratio was in the range of 3.7 to 5.

For `O=Cc1ccc(OCCCCCCCCCCCCCC[n+]2cccc3ccccc32)cc1O`, in [1], the 50% effective concentration (EC50) turned out to be 800 nM. The selectivity ratio in data set [3] was 3.7 to 5.

The compound `O=C(O)Cc1ccccc1Nc1c(Cl)cccc1Cl` [DICLOFENAC] yielded a half-life at 2 h, 40 µM in [7] below 30 min.

Regarding `O=Cc1ccc(OCCCCCCCCCCCCCC[P+](c2ccccc2)(c2ccccc2)c2ccccc2)cc1O`, the EC50 in [1] was below 1000 nM. Besides, in [3], the selectivity ratio is 2 to 27.

As to `O=C(OCCCCCCCCCCCC[P+](c1ccccc1)(c1ccccc1)c1ccccc1)c1ccc(O)cc1O`, the EC50 in [1] and in [5] was below 1000 nM each time. Further, the selectivity ratio in [3] was above 10.

`C[C@@H]1[C@H](O)[C@@H](C)/C=C/C=C/C=C/C=C/C=C/C=C/C=C/[C@H](O[C@@H]2O[C@H](C)[C@@H](O)[C@H](N)[C@@H]2O)C[C@@H]2O[C@](O)(C[C@@H](O)C[C@@H](O)[C@H](O)CC[C@@H](O)C[C@@H](O)CC(=O)O[C@H]1C)C[C@H](O)[C@H]2C(=O)O` [AMPHOTERICIN B]: the 50% effective concentration (EC50) was found to be 60 nM in data set [8]; 70 nM in data set [9]; 240 nM in data set [1]; 50 nM in [10]; 170 nM in [11]; 180 nM in data set [12]. For the same compound, the EC50 in data set [13] came to 100 nM; in data set [14] it was 160 nM; in [4], 27800 nM; in data set [5] it was 130 nM; in data set [15], 160 nM. The selectivity ratio in data set [3] stood at 116.

Regarding `COC(=O)c1ccc(OCCCCCCCCCC[P+](c2ccccc2)(c2ccccc2)c2ccccc2)cc1O`, in data set [1], the EC50 was below 1000 nM. Moreover, in [3], the selectivity ratio fell in the range of 2 to 27.

As to `CCCCCCCCCCCCCCCCOP(=O)([O-])OCC[N+](C)(C)C` [MILTEFOSINE], the EC50 in [1] was found to be 910 nM; in data set [4], 26200 nM; in [5], 6510 nM. For the same compound, the selectivity ratio in data set [3] was found to be 28.8.

For `COC(=O)c1ccc(OCCCCCCCCCCCCCC[P+](c2ccccc2)(c2ccccc2)c2ccccc2)cc1C`, the selectivity ratio in data set [6] fell in the range of 2 to 27. Also, the EC50 in [1] is below 1000 nM.

Take `O=C(O)c1ccc(OCCCCCCCCCCCCCC[P+](c2ccccc2)(c2ccccc2)c2ccccc2)cc1O`: the selectivity ratio in data set [6] is 2 to 27. Further, the EC50 in data set [1] and in [5] was below 200 nM in each case.

For the compound `O=C(OCCCCCCCCCCCCCC[P+](c1ccccc1)(c1ccccc1)c1ccccc1)c1ccc(O)cc1O`, the EC50 in data set [1] was found to be 110 nM; in [4], 3020 nM; in data set [5], 40 nM. Besides, the selectivity ratio in data set [3] amounted to 27.6.

One may read the EC50 as the concentration needed to bring the measured effect to its halfway point. In general, half-life refers to how long it takes for the measured level to halve.
